Laboratory results from PubChem BioAssay AID493003 (Sanford-Burnham Center for Chemical Genomics, 2010).
The source made the active and inactive calls. No rule for the calls is given here.

System: S. cerevisiae tim10-1 mutant growth, luminescence
Assay: tim10-1 yeast growth inhibition potency – luminescence, S. cerevisiae, uHTS hits, dose response (AID 493003);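 also: yeast growth measured after about 22 hours at 25 °C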

SMILES	IC50
CC(=O)SC1CC(=O)N(c2ccc(C(C)(C)C)cc2)C1=O (configuration not stated)	38.8 µM
CC(CC(=O)Nc1ncc([N+](=O)[O-])s1)c1ccccc1 (configuration not stated)	18.5 µM
N=C(N)c1ccc(/C=C/c2ccc(C(=N)N)cc2O)cc1	10.6 µM
C/C(=N\NC(=S)NCc1ccccc1)c1ccc(Cl)s1	16.4 µM
Cc1cc(N/N=C/c2ccc(Cl)cc2)nc(NCc2ccccc2)n1	36.6 µM
O=C(Nc1cc(Sc2ccccn2)cc([N+](=O)[O-])c1)c1cccc(F)c1	88 µM
O=C(/C=C/c1ccccc1)CC(O)(c1ccccc1)C(F)(F)F (configuration not stated)	24.2 µM
Cn1c2ccccc2c(=O)c2ccc(C#CC3(N)CCCCC3)cc21	27.1 µM
O=C1CN(C(=O)/C=C/c2cccc(Cl)c2)c2ccccc2N1	30.3 µM
COc1ccc(C)c2sc(N3CCCC3)nc12	21.7 µM
CCCCCCCCCCOC(=O)Cn1c(COc2ccccc2OC)[n+](C)c2ccccc21	10.9 µM
COc1c(/C=C2\SC(=Nc3ccccc3Cl)NC2=O)cccc1[N+](=O)[O-]	22.5 µM
Clc1cccc(Cl)c1/C=C/c1ccn[nH]1	22.8 µM
Cc1ccc(NC(=S)/N=C(\N)Nc2nc(C)c3cc(C)ccc3n2)c(C)c1	12.7 µM
C/C=C(/C(=C/C)c1ccc(O)cc1)c1ccc(O)cc1	25.6 µM
CCNC(=S)NNC(=O)c1cc(-c2cc(C)ccc2C)nc2ccccc12	24.3 µM
Cc1cc(Nc2cccc(F)c2)nc(-c2ccccc2O)n1	64.2 µM
CC(=O)c1ccc(NC(=S)NC(C)c2ccc(Cl)cc2Cl)cc1 (configuration not stated)	13.2 µM
Cc1ccccc1OCC(=O)Nc1ccc(Cc2ccncc2)cc1	41.7 µM
COc1ccc(-n2cc(-c3ccccc3)c3c(=S)nc[nH]c32)cc1	13 µM
O=C(NCCC1=CCCCC1)NC12CC3CC(CC(C3)C1)C2	50.7 µM
Cc1nn(-c2ccccc2)c(Cl)c1C(=O)N1CCN(c2ncnc3c2cnn3-c2ccccc2)CC1	> 100 µM (inactive)
COc1ccc(Br)cc1[C@H]1[C@H]2C=CC[C@@H](C)[C@@H]2C(=O)N1Cc1ccccc1	7.88 µM
Nc1nc(N)c(C=Nc2ccc(Br)cc2)c(Nc2ccc(Br)cc2)n1	16.8 µM

SMILES	IC50
CN1CCc2c(C#N)c(N3CCCCC3)nc(NCc3ccccc3)c2C1	16 µM
COc1ccc(Cc2n[nH]c(=S)n2NC(=O)Nc2ccc(Cl)c(Cl)c2)cc1	56.5 µM
COc1ccc(OCC(=O)Nc2ccc(S(=O)(=O)N3CCCCC3)cc2)cc1	36.4 µM
COc1cccc(/C=C2\N=C(C3CCCCC3)OC2=O)c1OC	36.3 µM
C/C(=N\OC(=O)NC(C)C)c1sc(-c2ccc(Cl)cc2)nc1C	33.5 µM
N/C(=N\OC(=O)c1ccc(Cl)cc1)c1ccc(Cl)cc1	3.34 µM
O=C(Nc1cccc(N2C(=O)C=CC2=O)c1)c1cccs1	4.4 µM
CSc1ccccc1NC(=O)C1CC(c2c(F)cccc2Cl)=NO1 (configuration not stated)	25.9 µM
O=C1c2cccc(Cl)c2C(=O)c2c1cccc2N1CCCC1	18.4 µM
C[C@@]12CCC=C[C@H]1[C@H](c1ccc3ccccc3c1)N(Cc1ccccc1)C2=O	22.2 µM
Cc1ccc(/C(N)=N/OC(=O)c2ccc3c(c2)OCO3)cc1	9.34 µM
Cc1nnc(SC2CC(=O)N(c3ccccc3)C2=O)s1 (configuration not stated)	31.1 µM
CC1CCN(S(=O)(=O)c2ccc(NC(=O)Cc3cccs3)cc2)CC1	46.5 µM
COc1ccc(-c2noc(C3CCCN(C(=O)CCc4ccccc4)C3)n2)cc1 (configuration not stated)	17.9 µM
N/C(=N\OC(=O)CCCc1ccccc1)c1ccccc1Cl	16.4 µM
CCn1nc(C)c(C(=O)Nc2cc(Oc3ccc(Cl)cc3)cc([N+](=O)[O-])c2)c1C	43.1 µM
O=C(Nc1cccc(C(F)(F)F)c1)N1CCC(c2nc(-c3ccc(F)cc3)no2)CC1	74.7 µM
Cc1c(C(=O)N2CCc3ccccc3C2)sc2nc(-c3ccccc3)cn12	37.2 µM
O=C(Nc1ccc2c(c1)OCO2)c1cccc2c1C(=O)N(Cc1cccnc1)C2	41.2 µM
O=C1CC(N2CC=C(c3ccccc3)CC2)C(=O)N1c1ccc(F)cc1 (configuration not stated)	14.7 µM
N/C(=N\OC(=O)c1ccccc1Cl)c1cccc([N+](=O)[O-])c1	23 µM
CCCCn1nc(NC(=O)c2cccs2)c2cc3ccccc3nc21	73.9 µM
COC(=O)c1cc(C)[nH]c2c(C)cc3nc4ccccc4c3c12	21 µM
CCc1cccc(NC(=O)CS(=O)Cc2nc(-c3ccc(C)cc3)oc2C)c1 (configuration not stated)	27 µM

SMILES	IC50
CSc1ccccc1OCc1cc(C(=O)N2CCC(Oc3cccnc3)CC2)no1	39.9 µM
N/C(=N\OC(=O)Cc1ccc([N+](=O)[O-])cc1)c1cccc(Br)c1	27.4 µM
O=C(OCn1ncc(Br)c(Br)c1=O)c1ccc(F)cc1	3.3 µM
CN1CCN(c2ccccc2NC(=O)c2ccc(-c3cccc(Cl)c3)o2)CC1	21.4 µM
N#C/C(=C\c1c[nH]c2ccc(Br)cc12)c1ccccn1	33.4 µM
COc1ccc(-c2sc3cc4c(cc3c2C#CC2(N)CCCCC2)OCO4)cc1	12.5 µM
CCC(CO)Nc1nc2ccc(Cl)cc2c2ccccc12 (configuration not stated)	17 µM
Cc1[nH]nc2c1-c1nc3ccccc3nc1C(C)(C)C2	23.8 µM
CC(C)C[C@@H](CSc1ccc(Br)cc1)N1CCN(CC(C)C)CCC1=O	25.9 µM
Nc1c(C(=O)Nc2ccccc2)c2nc3ccccc3nc2n1CCCN1CCOCC1	8.41 µM
C=CCc1cccc(CNc2nc3ccccc3n2C(C)C)c1O	61.1 µM
CCCCCCSc1ccc([C@H]2N[C@@](C)(C(=O)OC)[C@H]3C(=O)N(C)C(=O)[C@@H]23)cc1	53.2 µM
O=C(c1cc(COc2cccc(C(F)(F)F)c2)on1)N1C[C@@H]2CCC[C@H]1C2	27.3 µM
Cc1ccc(S(=O)(=O)Nc2ccc(N=Nc3ccc(O)cc3)cc2)cc1	20.9 µM
Cc1ccc(C)c(S(=O)(=O)ON2C(=O)c3ccccc3C2=O)c1	22.1 µM
S=C(NCCSCc1ccc(Cl)cc1)Nc1ccccc1	19.5 µM
Cc1c(C(=O)NC2CCCc3ccccc32)oc2ccccc12 (configuration not stated)	20.2 µM
Cc1cc(C)n(-c2nc(-n3nc(C)cc3C)c3c4c(sc3n2)COC(C)(C)C4)n1	19.1 µM
O=C(O)/C=C/C(=O)c1ccc2c(c1)CCc1ccccc1-2	10.9 µM
Cc1nc2c(-c3ccccc3)cnn2c(N)c1-c1ccccc1	24 µM
Clc1ccc(CNc2nc(CN3CCOCC3)nc3scc(-c4ccccc4)c23)cc1	13.3 µM
O=C(CSCc1ccccc1Cl)NNC(=S)Nc1ccccc1	33 µM
O=C(Nc1cccc(Cl)c1)N1N=CCC1c1ccccc1 (configuration not stated)	29.6 µM
CNc1nc(-c2ccccn2)nnc1-c1ccccc1	29.8 µM

SMILES	IC50
COc1cc(Br)cc(/C=C/c2ccc3cccc(O)c3n2)c1O	47.2 µM
Cn1c(/C=C/c2ccc([N+](=O)[O-])o2)nc2ccccc2c1=O	7.3 µM
COc1ccc(C/C(=N\OC(C)=O)c2ccc(OC)cc2)cc1	25.7 µM
CC(C)c1ccc(S(=O)(=O)N2CCN(CC(=O)Nc3ccc4c(c3)OCO4)CC2)cc1	75.4 µM
Cc1noc(NS(=O)(=O)c2ccc(NC(=O)Nc3ccc(Cl)c(Cl)c3)cc2)c1C	43.1 µM
CCCC(=O)NC(=S)Nc1ccc(Cl)cn1	30.1 µM
CCC(=NCc1ccccc1)c1c(C(F)(F)F)[nH]n(-c2nc3ccccc3s2)c1=O	> 100 µM (inactive)
C/C(=N\NC(=S)Nc1cccc(C)c1)c1cc2ccccc2o1	47.7 µM
COc1ccc2[nH]c3c(=O)n4c(nc3c2c1)SCCC4	40.7 µM
COc1ccc(C(=O)O/N=C(\N)c2ccc(Br)cc2)cc1	11.9 µM
CC(=O)N1CCN(c2cc(N3CCc4ccccc4C3)c(F)cc2[N+](=O)[O-])CC1	9.9 µM
O=C(CSc1nc2cc(Cl)ccc2s1)c1ccco1	50.6 µM
Oc1ccccc1-c1csc(-c2ccccc2)n1	26.3 µM
C=Cc1ncc(OC)c2c1[nH]c1ccccc12	25 µM
CCOc1ccc(NC(=O)c2cccc3c2C(=O)N(Cc2cccnc2)C3)cc1	22.8 µM
O=C(O)c1ccc(C=C(c2nc3ccccc3s2)c2nc3ccccc3s2)cc1	> 100 µM (inactive)
CSc1ccc(S(=O)(=O)NCc2ccccc2Cl)cc1	22.4 µM
C[C@@H]1CC=C[C@H]2[C@H]1C(=O)N(Cc1ccccc1)[C@H]2c1ccc(-c2ccoc2)cc1F	12.4 µM
CC/C(=N\Nc1ccccc1[N+](=O)[O-])c1ccc(O)cc1	20 µM
CC(C)C(=O)N1CCN(c2ccccc2NC(=O)c2ccc([N+](=O)[O-])o2)CC1	11.5 µM
CCc1c(C)[nH]n(-c2nc(-c3ccccc3)cs2)c1=O	38.4 µM
O=C1C2C3C=CC(CO)(O3)C2C(=O)N1c1ccccc1-c1ccccc1 (configuration not stated)	4.92 µM
S=c1[nH]nc(-c2ccco2)n1/N=C/C=C/c1ccccc1	42.7 µM
COC(=O)N1C(=O)[C@@](c2ccccc2)(C2CCCCC2)N1C(=O)OC	61.7 µM

SMILES	IC50
COc1ccc(-c2[nH]ncc2N=Nc2ccccc2)cc1	16.7 µM
Cc1nc(Nc2ccccc2)sc1-c1ccccc1	11.9 µM
N/C(CCS(=O)(=O)c1ccc(Cl)cc1)=N\OC(=O)c1ccccc1C(F)(F)F	37.5 µM
O=S(=O)(Nc1cccc2cccnc12)c1ccc(S(=O)(=O)N2CCCC2)cc1	41.2 µM
C=CCc1ccc(O)c(-c2ccc(O)c(CC=C)c2)c1	48.8 µM
N/C(Cc1cccs1)=N\OC(=O)COc1ccc(Cl)cc1Cl	24.7 µM
O=C(COC(=O)c1ccccc1C(=O)c1ccccc1)Nc1ccc(SC(F)F)cc1	72.9 µM
O=C(NC(=S)NCc1ccccc1)c1ccccc1F	66.5 µM
COc1cccc2sc(Nc3nc(-c4ccccn4)cs3)nc12	20.2 µM
COc1ccc(Br)c(-c2nnc(CS(=O)(=O)c3ccccc3)o2)c1	28.4 µM
Cc1nc2ccccn2c1P(=S)(N1CCCCC1)N1CCCCC1	39.7 µM
Cc1cc(NC(=O)c2ccccc2Oc2ccccc2)no1	60.3 µM
CCOC(=O)c1ccc2[nH]c3c(c2c1)CCCC3	34.4 µM
O=C(Nc1ncc2c(n1)-c1ccccc1CC2)c1cccc(Cl)c1	52.7 µM
CC(C)Nc1nnc(Sc2ccc(Cl)cc2[N+](=O)[O-])s1	8.34 µM
C/C(=N\O)c1cc(Cl)cc(Cl)c1O	15 µM
Clc1ccc(Cn2c(/C=C/c3ccco3)nc3ccccc32)cc1	45.7 µM
COc1ccc2nc(/N=C(\N)NC(=O)Nc3ccccc3)nc(C)c2c1	47.3 µM
CCCCC(CC)C(=O)Nc1ncc([N+](=O)[O-])s1 (configuration not stated)	19.3 µM
COc1ccc(-c2cc(C3CCN(C(=O)OC(C)(C)C)CC3)[nH]n2)cc1	51.2 µM
CCc1ccc2nc3nc(C)cc(C)c3c(N)c2c1	25.1 µM
